Patent publication US6211168A, “Methods for preparation and use of 1α,24 (S)-dihydroxy vitamin D2” (Bone Care International, Inc, priority 1995, dated 2001)

Tests used:
[1] = target: T1, vitamin D serum binding protein (DBP) (Rattus norvegicus, UniProt P04276); test: affinity for vitamin D serum binding protein in vitamin D deficient rat serum
T1 sequence (P04276 17-476): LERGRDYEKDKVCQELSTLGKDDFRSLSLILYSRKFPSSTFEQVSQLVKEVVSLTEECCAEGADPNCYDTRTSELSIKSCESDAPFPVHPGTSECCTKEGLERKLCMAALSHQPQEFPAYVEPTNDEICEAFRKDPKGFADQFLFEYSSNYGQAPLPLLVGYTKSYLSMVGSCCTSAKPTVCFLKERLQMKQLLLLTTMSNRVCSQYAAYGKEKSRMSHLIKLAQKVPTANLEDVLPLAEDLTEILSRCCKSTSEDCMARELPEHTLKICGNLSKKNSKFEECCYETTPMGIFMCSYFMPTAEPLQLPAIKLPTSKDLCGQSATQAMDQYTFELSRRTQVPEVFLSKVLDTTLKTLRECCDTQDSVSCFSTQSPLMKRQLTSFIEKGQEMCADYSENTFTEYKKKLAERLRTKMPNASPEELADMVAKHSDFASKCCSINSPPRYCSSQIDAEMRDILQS
Source text: In addition, the weak binding by the DBP was indicative of more rapid clearance, allowing for low toxicity.

[2] = system: postmenopausal osteoporotic women; test: dose ranging study in postmenopausal osteoporotic women; assay type: in vivo, human; settings: oral 0.5 to 8.0 μg/day escalating over five weeks
Procedure: Twenty postmenopausal osteoporotic women are enrolled in an open label study.
On admission to the study, all patients receive instruction on selecting a daily diet containing 400 to 600 mg of calcium. Compliance to this diet is verified at weekly intervals by 24-hour food records and by interviews with each patient.
All patients complete a one-week baseline period, a five-week treatment period, and a one-week post-treatment observation period. During the treatment period, patients orally self-administer 1α,24(S)-dihydroxyvitamin D2 at an initial dose of 0.5 μg/day for the first week, and at successively higher doses of 1.0, 2.0, 4.0, and 8.0 μg/day in each of the following four weeks. All doses are administered before breakfast.
Blood and urine chemistries are monitored on a weekly basis throughout the study. Key blood chemistries include fasting serum levels of calcium, phosphorus, osteocalcin, creatinine, and blood urea nitrogen. Key urine chemistries include 24-hour excretion of calcium, phosphorus, and creatinine.

Human keratinocytes = test: epidermal cell differentiation and proliferation testing; assay type: cell-based; settings: 0.05 to 5 μg/ml, versus ethanol control cultures
Procedure: Human keratinocytes are cultured according to known modifications of the system originally described by Rheinwald and Green (Cell, vol. 6, p. 331 (1975)). The 1α,24(S)-dihydroxy vitamin D2, dissolved in ethanol, is added to cells to yield a variety of concentrations between 0.05 and 5 μg/ml with the ethanol concentration not to exceed 0.5% v/v. Control cultures are supplemented with ethanol at a final concentration of 0.5% v/v.
Differentiation and proliferation of epidermal cells in culture is examined by:
1. quantitation of cornified envelopes;
2. quantitation of cell density of cells attached to disks;
3. monitoring transglutaminase activity; or
4. monitoring DNA synthesis by incorporation of ^3 H-thymidine.

[3] = system: human cancer cell lines BCA-1 or ZR-75-1 (breast) and COL-1 (colon); test: antiproliferative activity in human cancer cell lines (thymidine incorporation); assay type: cell-based; settings: dose-response
Procedure: Dose-response studies are conducted with 1α,24(S)-(OH)2 D2 in a battery of human cancer cell lines. These cell lines include, but are not limited to, the following: BCA-1 or ZR-75-1 (breast) and COL-1 (colon), as described by Shieh, H. L. et al. Chem. Biol. Interact., vol. 81, pp. 35-55 (1982). In this study, appropriate solvents are used as negative controls.

binding affinity for the vitamin D serum binding protein [1]: relatively poor binding affinity
binding to the vitamin D serum binding protein relative to 1,25-(OH)2 D3 [1]: more weakly than does 1,25-(OH)2 D3
Compound: C=C1/C(=C\C=C2/CCC[C@]3(C)[C@@H]([C@H](C)/C=C/[C@@](C)(O)C(C)C)CC[C@@H]23)C[C@@H](O)C[C@@H]1O [1α,24(S)-(OH)2 D2, 1α,24(S)-dihydroxy vitamin D2]
24-hour urinary calcium levels [2]: modest increases in 24-hour urinary calcium levels
routinely monitored serum parameters [2]: no effect on any routinely monitored serum parameters
serum osteocalcin levels [2]: increases in serum osteocalcin levels
urinary excretion of hydroxyproline [2]: nor does it increase urinary excretion of hydroxyproline
DNA synthesis by incorporation of 3H-thymidine (Human keratinocytes): lower DNA synthesis
cell density of cells attached to disks (Human keratinocytes): fewer attached cells
cornified envelopes (Human keratinocytes): more cornified envelopes
transglutaminase activity (Human keratinocytes): higher transglutaminase activity
antiproliferative activity, inhibition of thymidine incorporation [3]: potent (and reversible) antiproliferative activity
